Patent US20110098325A1, “PYRIDINE BENZAMIDES AND PYRAZINE BENZAMIDES USED AS PKD INHIBITORS” (CANCER RESEARCH TECHNOLOGY LIMITED, priority 2006, published 2011)

Biological target: T1, Murine PKD1 kinase domain (Mus musculus, UniProt Q62101)
T1 construct: hexahistidine (pFastBac HTb leader) (N); made in house; host or cells: Sf9 insect cells, baculovirus (Bac-to-Bac HT, pFastBac HTb)
T1 sequence (Q62101 with tags, fused parts or gaps R683W): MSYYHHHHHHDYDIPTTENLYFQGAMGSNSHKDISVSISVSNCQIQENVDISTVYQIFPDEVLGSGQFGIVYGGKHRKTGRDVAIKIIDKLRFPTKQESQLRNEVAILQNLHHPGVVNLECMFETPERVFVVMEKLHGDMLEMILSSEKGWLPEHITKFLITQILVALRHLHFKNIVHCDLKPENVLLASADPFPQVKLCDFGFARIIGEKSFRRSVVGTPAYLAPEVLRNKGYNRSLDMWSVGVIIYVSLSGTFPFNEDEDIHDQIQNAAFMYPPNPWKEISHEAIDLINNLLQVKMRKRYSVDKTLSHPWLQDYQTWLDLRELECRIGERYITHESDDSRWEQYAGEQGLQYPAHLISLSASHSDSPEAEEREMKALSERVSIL
Test: PKD1 (Murine Kinase Domain) Enzyme Activity Assay (IMAP fluorescence polarisation)
Format: biochemical
Details: 10 μM ATP, 60 minutes, room temperature
Excerpt: The DNA sequence corresponding to murine PKD1 (see FIG. 1) was inserted into pFastBAc Htb (Invitrogen, USA) at BamH1 and EcoR1 sites using standard molecular biology techniques.
The PKD1 described above was expressed as a hexahistidine tagged protein construct using a commercially available baculoviral expression system that induces protein production in insect cell culture (Bac-to-Bac® HT Baculovirus Expression System, Invitrogen). Protein was typically expressed by inoculating 1 L of sf9 cells with a genetically modified baculovirus containing the gene for the kinase domain of PKD1. Sf9 cells were obtained from ICR Ltd.
Purification of PKD1 was achieved by standard chromatographic procedures. Capture from crude centrifuged lysed cell supernatant was achieved using metal affinity chromatography (GE Healthcare Life Sciences, HiTrap Chelating chromatography column), and fractions showing PKD1 (as assessed by gel electrophoresis and western blot) were further purified by a single polish purification step performed using a mono Q anion exchange chromatography system (GE Healthcare Life Sciences, HiTrap HP Q column). […] This protocol describes the method for screening compounds as inhibitors of Protein Kinase D activity in a 384 well microplate format fluorescence polarisation IMAP assay performed using the Biomek FX.
Kinase Enzyme: Murine PKD1 kinase domain at ˜100 μg/mL, was purified from baculovirus (as described above), obtained from aliquots stored at −70° C. PKD was prepared with a final concentration of 0.1 μg/mL by diluting 1:300 in Reaction Buffer (30 μL per 9 mL-5 mL per plate with an additional 4 mL dead volume) and vortexing prior to use. It was necessary to check this concentration regularly in case of enzyme degradation.
(also known as MAPKAP K2 substrate) was obtained from Molecular Devices (Product code R7127). It was used at 300 nM by diluting 20 μM stock 1:66 in Kinase/Reaction Buffer (135 μL per 9 mL; 75 μL per 5 mL Reaction Buffer for blank wells requiring <1 mL per place with an additional 4 mL dead volume).
A 1 mM ATP stock in Reaction Buffer was prepared from a 10 mM stock in 20 mM NaOH and stored as aliquots at −70° C. It was used at 40 μM by diluting 1 mM stock 1:25 in Reaction Buffer (240 μL per 6 mL-2 mL per plate with an additional 4 mL dead volume) and vortexing prior to use.
IMAP Reagents: IMAP Binding Reagent (product code R7207) and Binding Buffer (product code R7208) were obtained from Molecular Devices and stored at +4° C. The beads were gently re-suspended before diluting by 1:400 in buffer (Binding Buffer is supplied as a 5× stock and so was diluted with water prior to use) and then vortexing before addition to wells. 16 mL water with 4 mL Binding Buffer and 50 μL Binding Reagent were used per plate (17 mL per plate with an additional 3 mL dead volume).
13 μL Substrate in Reaction Buffer was added to ‘blank’ wells to give 200 nM reaction concentration. […] 2 μL 10% DMSO/water was added to ‘blank’ and ‘control’ wells. 5 μL ATP in Reaction Buffer was added to all wells to give 10 μM reaction concentration. The reaction mixture was then incubated at room temperature for 60 minutes. The incubation period was followed by the addition of 40 μL IMAP Binding Reagent in Binding Buffer to all wells. The reaction was then further incubated at room temperature for […].
Percentage inhibition was calculated based on activity of the test sample minus the average values in the blank wells relative to the average values measured in control wells minus the average values in the blank wells.
IC50 values were calculated from 10 point dose sigmoid ‘dose-response’ curves using Xlfit software (IDBS inc, USA). Data were fitted to a 4 parameter logistic model/sigmoidal dose response:
where: A=fit minimum (locked to 0); B=fit maximum (locked to 100); C=fit midpoint (pre-fit to 1); D=slope at linear portion of curve, hillslope (pre-fit to 0.1)

| IC50 | Structure (SMILES) |
| --- | --- |
| < 1 µM | CN(C)CCNC(=O)c1cccc(-c2cnc(N)c(-c3ccc(O)c(F)c3)c2)c1 [Y-042, 3-[6-Amino-5-(3-fluoro-4-hydroxy-phenyl)-pyridin-3-yl]-N-(2-dimethylamino-ethyl)-benzamide] |
| < 1 µM | COc1ccc(-c2cc(-c3cccc(C(=O)NCCN(C)C)c3)cnc2N)cc1F [Y-043, 3-[6-Amino-5-(3-fluoro-4-methoxy-phenyl)-pyridin-3-yl]-N-(2-dimethylamino-ethyl)-benzamide] |
| < 1 µM | Cc1ccc(-c2cc(-c3cccc(C(=O)NCCN(C)C)c3)cnc2N)cc1F [Y-044, 3-[6-Amino-5-(3-fluoro-4-methyl-phenyl)-pyridin-3-yl]-N-(2-dimethylamino-ethyl)-benzamide] |
| < 1 µM | CN(C)CCNC(=O)c1cccc(-c2cnc(N)c(-c3ccc(-c4ccccc4)cc3F)c2)c1 [Y-045, 3-[6-Amino-5-(3-fluoro-biphenyl-4-yl)-pyridin-3-yl]-N-(2-dimethylamino-ethyl)-benzamide] |
| < 1 µM | CN(C)CCNC(=O)c1cccc(-c2cnc(N)c(-c3cccc(Oc4ccccc4)c3)c2)c1 [Y-049, 3-[6-Amino-5-(3-phenoxy-phenyl)-pyridin-3-yl]-N-(2-dimethylamino-ethyl)-benzamide] |
| < 1 µM | CN(C)CCNC(=O)c1cccc(-c2cnc(N)c(-c3ccc(OCc4ccccc4)cc3)c2)c1 [Y-051, 3-[6-Amino-5-(4-benzyloxy-phenyl)-pyridin-3-yl]-N-(2-dimethylamino-ethyl)-benzamide] |
| < 1 µM | CN(C)CCNC(=O)c1cccc(-c2cnc(N)c(-c3ccc(Cl)c(F)c3)c2)c1 [Y-052, 3-[6-Amino-5-(4-chloro-3-fluoro-phenyl)-pyridin-3-yl]-N-(2-dimethylamino-ethyl)-benzamide] |
| 1 to 10 µM | COc1cc(F)ccc1-c1cc(-c2cccc(C(=O)NCCN(C)C)c2)cnc1N [Y-054, 3-[6-Amino-5-(4-fluoro-2-methoxy-phenyl)-pyridin-3-yl]-N-(2-dimethylamino-ethyl)-benzamide] |
| < 1 µM | COc1cc(-c2cc(-c3cccc(C(=O)NCCN(C)C)c3)cnc2N)ccc1F [Y-056, 3-[6-Amino-5-(4-fluoro-3-methoxy-phenyl)-pyridin-3-yl]-N-(2-dimethylamino-ethyl)-benzamide] |
| < 1 µM | CN(C)CCNC(=O)c1cccc(-c2cnc(N)c(-c3ccc(F)cc3)c2)c1 [Y-058, 3-[6-Amino-5-(4-fluoro-phenyl)-pyridin-3-yl]-N-(2-dimethylamino-ethyl)-benzamide] |
| < 1 µM | COc1ccc(-c2cc(-c3cccc(C(=O)NCCN(C)C)c3)cnc2N)cc1 [Y-063, 3-[6-Amino-5-(4-methoxy-phenyl)-pyridin-3-yl]-N-(2-dimethylamino-ethyl)-benzamide] |
| < 1 µM | CN(C)CCNC(=O)c1cccc(-c2cnc(N)c(-c3ccc(Oc4ccccc4)cc3)c2)c1 [Y-067, 3-[6-Amino-5-(4-phenoxy-phenyl)-pyridin-3-yl]-N-(2-dimethylamino-ethyl)-benzamide] |
| < 1 µM | CN(C)CCNC(=O)c1cccc(-c2cnc(N)c(-c3ccc(C(=O)c4ccccc4)cc3)c2)c1 [Y-070, 3-[6-Amino-5-(4-benzoyl-phenyl)-pyridin-3-yl]-N-(2-dimethylamino-ethyl)-benzamide] |

More lines, now with the values behind:

| Structure (SMILES) | IC50 |
| --- | --- |
| CC(C)Oc1cccc(-c2cc(-c3cccc(C(=O)NCCN(C)C)c3)cnc2N)c1 [Y-046, 3-[6-Amino-5-(3-isopropoxy-phenyl)-pyridin-3-yl]-N-(2-dimethylamino-ethyl)-benzamide] | 1 to 10 µM |
| COCc1cccc(-c2cc(-c3cccc(C(=O)NCCN(C)C)c3)cnc2N)c1 [Y-047, 3-[6-Amino-5-(3-methoxymethyl-phenyl)-pyridin-3-yl]-N-(2-dimethylamino-ethyl)-benzamide] | 1 to 10 µM |
| COc1cccc(-c2cc(-c3cccc(C(=O)NCCN(C)C)c3)cnc2N)c1 [Y-048, 3-[6-Amino-5-(3-methoxy-phenyl)-pyridin-3-yl]-N-(2-dimethylamino-ethyl)-benzamide] | < 1 µM |
| CN(C)CCNC(=O)c1cccc(-c2cnc(N)c(-c3cccc(OC(F)(F)F)c3)c2)c1 [Y-050, 3-[6-Amino-5-(3-trifluoromethoxy-phenyl)-pyridin-3-yl]-N-(2-dimethylamino-ethyl)-benzamide] | < 1 µM |
| CCSc1ccc(-c2cc(-c3cccc(C(=O)NCCN(C)C)c3)cnc2N)cc1 [Y-053, 3-[6-Amino-5-(4-ethylsulfanyl-phenyl)-pyridin-3-yl]-N-(2-dimethylamino-ethyl)-benzamide] | < 1 µM |
| COc1cc(-c2cc(-c3cccc(C(N)=O)c3)cnc2N)ccc1F [Y-055, 3-[6-Amino-5-(4-fluoro-3-methoxy-phenyl)-pyridin-3-yl]-benzamide] | < 1 µM |
| CN(C)CCNC(=O)c1cccc(-c2cnc(N)c(-c3ccc(F)c(C(F)(F)F)c3)c2)c1 [Y-057, 3-[6-Amino-5-(4-fluoro-3-trifluoromethyl-phenyl)-pyridin-3-yl]-N-(2-dimethylamino-ethyl)-benzamide] | < 1 µM |
| COc1cc(-c2cc(-c3cccc(C(=O)NCCCN(C)C)c3)cnc2N)ccc1O [Y-060, 3-[6-Amino-5-(4-hydroxy-3-methoxy-phenyl)-pyridin-3-yl]-N-(3-dimethylamino-propyl)-benzamide] | < 1 µM |
| CN(C)CCNC(=O)c1cccc(-c2cnc(N)c(-c3ccc(CO)cc3)c2)c1 [Y-061, 3-[6-Amino-5-(4-hydroxymethyl-phenyl)-pyridin-3-yl]-N-(2-dimethylamino-ethyl)-benzamide] | < 1 µM |
| CC(C)Cc1ccc(-c2cc(-c3cccc(C(=O)NCCN(C)C)c3)cnc2N)cc1 [Y-062, 3-[6-Amino-5-(4-isobutyl-phenyl)-pyridin-3-yl]-N-(2-dimethylamino-ethyl)-benzamide] | < 1 µM |
| CN(C)CCNC(=O)c1cccc(-c2cnc(N)c(-c3ccc(OC(F)(F)F)cc3)c2)c1 [Y-064, 3-[6-Amino-5-(4-trifluoromethoxy-phenyl)-pyridin-3-yl]-N-(2-dimethylamino-ethyl)-benzamide] | < 1 µM |
| CN(C)CCNC(=O)c1cccc(-c2cnc(N)c(-c3ccc(OC4CCCCO4)cc3)c2)c1 (stereo not shown) [Y-065, 3-{6-Amino-5-[4-(tetrahydro-pyran-2-yloxy)-phenyl]-pyridin-3-yl}-N-(2-dimethylamino-ethyl)-benzamide] | < 1 µM |
| COC(=O)c1ccc(-c2cc(-c3cccc(C(=O)NCCN(C)C)c3)cnc2N)cc1OC [Y-066, 4-{2-Amino-5-[3-(2-dimethylamino-ethylcarbamoyl)-phenyl]-pyridin-3-yl}-2-methoxy-benzoic acid methyl ester] | < 1 µM |
| CN(C)CCNC(=O)c1cccc(-c2cnc(N)c(-c3ccc(C(C)(C)C)cc3)c2)c1 [Y-068, 3-[6-Amino-5-(4-tert-butyl-phenyl)-pyridin-3-yl]-N-(2-dimethylamino-ethyl)-benzamide] | < 1 µM |
| CN(C)CCNC(=O)c1cccc(-c2cnc(N)c(-c3ccc(C(F)(F)F)cc3)c2)c1 [Y-069, 3-[6-Amino-5-(4-trifluoromethyl-phenyl)-pyridin-3-yl]-N-(2-dimethylamino-ethyl)-benzamide] | < 1 µM |
